# Measurements reported in ChEMBL document CHEMBL4393697, “Lipophilic efficient phenylthiazoles with potent undecaprenyl pyrophosphatase inhibitory activity” (Eur J Med Chem, 2019).
# The source made the active and inactive calls. The rule behind the calls is not given here.
# How the values were obtained:
# [1] = tested on: Streptococcus pneumoniae; assay: Bactericidal activity against Methicillin resistant Streptococcus pneumoniae ATCC 700677 assessed as reduction in bacterial cell growth incubated for 18 to 20 hrs followed by re-plating on tryptic soy agar plates at 37 degC for 18 hrs by broth microdilution assay; assay type: functional
# [2] = tested on: Enterococcus faecium; assay: Ratio of MBC to MIC for vancomycin resistant Enterococcus faecium ATCC 700221 by broth microdilution method; assay type: functional
# [3] = tested on: Streptococcus pneumoniae; assay: Ratio of MBC to MIC for Cephalosporin resistant Streptococcus pneumoniae ATCC 51916 by broth microdilution method; assay type: functional
# [4] = tested on: Escherichia coli; assay: Bactericidal activity against Escherichia coli JW55031 harboring deltatolC mutant assessed as reduction in bacterial cell growth incubated for 18 to 20 hrs followed by re-plating on tryptic soy agar plates at 37 degC for 18 hrs by broth microdilution assay; assay type: functional
# [5] = tested on: Klebsiella pneumoniae; assay: Bactericidal activity against Klebsiella pneumoniae BAA-1706 assessed as reduction in bacterial cell growth incubated for 18 to 20 hrs followed by re-plating on tryptic soy agar plates at 37 degC for 18 hrs by broth microdilution assay; assay type: functional
# [6] = tested on: Staphylococcus aureus; assay: Ratio of MBC to MIC for Staphylococcus aureus NRS107 by broth microdilution assay; assay type: functional
# [7] = tested on: Listeria monocytogenes; assay: Ratio of MBC to MIC for Listeria monocytogenes ATCC 19111 by broth microdilution assay; assay type: functional
# [8] = tested on: Klebsiella pneumoniae; assay: Antibacterial activity against Klebsiella pneumoniae BAA-1706 assessed as reduction in bacterial cell growth incubated for 18 to 20 hrs by broth microdilution method; assay type: functional
# [9] = tested on: Staphylococcus epidermidis; assay: Bactericidal activity against methicillin resistant Staphylococcus epidermidis NRS101 assessed as reduction in bacterial cell growth incubated for 18 to 20 hrs followed by re-plating on tryptic soy agar plates at 37 degC for 18 hrs by broth microdilution assay; assay type: functional
# [10] = tested on: Staphylococcus aureus; assay: Ratio of MBC to MIC for Staphylococcus aureus ATCC 6538 by broth microdilution assay; assay type: functional
# [11] = tested on: Staphylococcus aureus; assay: Antibacterial activity against methicillin-resistant Staphylococcus aureus USA400 assessed as reduction in CFU at 4 x MIC preincubated for 6 hrs in Tryptic soy broth followed by incubation for 18 to 20 hrs on TSA plate by time-kill assay; assay type: functional, organism-based
# [12] = tested on: Staphylococcus aureus; assay: Antibacterial activity against methicillin-resistant Staphylococcus aureus USA400 treated over 14 passages by broth microdilution assay; assay type: functional, organism-based
# [13] = tested on: Streptococcus pneumoniae; assay: Ratio of MBC to MIC for Methicillin resistant Streptococcus pneumoniae ATCC 700677 by broth microdilution method; assay type: functional
# [14] = tested on: Enterococcus faecalis; assay: Ratio of MBC to MIC for vancomycin resistant Enterococcus faecalis ATCC 51299 by broth microdilution method; assay type: functional
# [15] = tested on: Staphylococcus aureus; assay: Antibacterial activity against methicillin-resistant Staphylococcus aureus USA400 assessed as reduction in CFU at 4 x MIC preincubated for 24 hrs in Tryptic soy broth followed by incubation for 18 to 20 hrs on TSA plate by time-kill assay; assay type: functional, organism-based
# [16] = tested on: Staphylococcus aureus; assay: Resistance index, ratio of MIC for antibacterial activity against methicillin-resistant Staphylococcus aureus USA400 treated repeatedly over 6 passages to MIC for antibacterial activity against methicillin-resistant Staphylococcus aureus USA400 treated for 18 to 20 hrs by broth microdilution assay; assay type: functional
# [17] = tested on: Staphylococcus aureus; assay: Antibacterial activity against methicillin-resistant Staphylococcus aureus USA400 assessed as reduction in CFU at 4 x MIC preincubated for 12 hrs in Tryptic soy broth followed by incubation for 18 to 20 hrs on TSA plate by time-kill assay; assay type: functional
# [18] = tested on: J774; assay: Cytotoxicity against mouse J774 cells reduction in cell viability up to 32 ug/ml incubated for 24 hrs by MTS assay; assay type: cell-based; conditions: j774, 24 h
Compound,MBC [1],Ratio [2],Ratio [3],MBC [4],MBC [5],Ratio [6],Ratio [7],MIC [8],MBC [9],Ratio [10],inhibition [11],Activity [12],Ratio [13],Ratio [14],inhibition [15],Ratio [16],Activity [17],Activity [18]
C/C(=N\NC(=N)N)c1sc(-c2ccc(C#CC3(O)CCCCC3)cc2)nc1C,8 µg/mL,2,2,32 µg/mL,> 64 µg/mL,2,2,> 64 µg/mL,4 µg/mL,2,Active,Active,2,2,–,–,–,–
C/C(=N\NC(=N)N)c1sc(-c2ccc(C#CC(C)(C)O)cc2)nc1C,8 µg/mL,2,2,16 µg/mL,> 64 µg/mL,2,2,> 64 µg/mL,4 µg/mL,2,–,–,2,2,–,–,–,–
C/C(=N\NC(=N)N)c1sc(-c2ccc(C#Cc3ccc(C)s3)cc2)nc1C,32 µg/mL,–,–,64 µg/mL,64 µg/mL,–,–,32 µg/mL,4 µg/mL,–,–,–,–,–,Active,1,3 log10CFU,–
C/C(=N\NC(=N)N)c1sc(-c2ccc(C#Cc3ccc(N)cc3)cc2)nc1C,32 µg/mL,–,–,16 µg/mL,> 64 µg/mL,–,–,> 64 µg/mL,2 µg/mL,–,–,–,–,–,Active,1,3 log10CFU,Non-Toxic
